The values that follow come from US6380251B1, “Cyclopentane heptan(ene)oic acid, 2-thiocarbamoyloxy and 2-carbamoyloxy compounds as therapeutic agents” (Allergan Sales, Inc., priority 2000, dated 2002).

Molecules are shown by their SMILES.

In one experiment the test system is Dog intraocular pressure. Put plainly: Dog intraocular pressure by applanation pneumatonometry. The class given is in vivo. The settings on record: dogs, 25 μl to the ocular surface, contralateral eye vehicle, measured before and at 6 hours; FIGS. 3 and 4. How it is done:
The compounds were prepared at the said concentrations in a vehicle comprising 0.1% polysorbate 80 and 10 mM TRIS base. Dogs were treated by administering 25 μl to the ocular surface, the contralateral eye received vehicle as a control. Intraocular pressure was measured by applanation pneumatonometry. Dog intraocular pressure was measured immediately before drug administration and at 6 hours thereafter.
On to `O=C(O)CCC/C=C\C[C@H]1C(O)CC(O)[C@@H]1COC(=S)NCc1ccccc1` (stereo in doubt) [Example 9, 7-[2-Benzylthiocarbamoyloxymethyl-3,5-dihydroxycyclopentyl]hept-5-enoic acid], for which the “effect on intraocular pressure” value was “lowered intraocular pressure”. As to `O=C(O)CCC/C=C\C[C@@H]1[C@@H](COC(=S)NCc2cccc(Cl)c2)[C@H](O)C[C@@H]1O` [Example 12, (Z)-7-[(1R,2S,3R,5S)-2-(3-Chlorobenzylthiocarbamoyloxymethyl)-3,5-dihydroxycyclopentyl]hept-5-enoic acid], the “effect on intraocular pressure” value is “lowered intraocular pressure”.

The test system of the next experiment is PGF2α-sensitive receptor provisionally termed FPVASC. Put plainly: relaxation of smooth muscle of isolated rabbit jugular vein.
Conditions: not given
The class given is cell-based. Here is the method:
Activity at different prostanoid receptors was measured in vitro in isolated smooth muscle preparations. FP-activity was measured as contraction of the isolated feline iris sphincter. Activity was also measured as relaxation of smooth muscle of isolated rabbit jugular vein a preparation which appears to contain a unique PGF2α-sensitive receptor provisionally termed FPVASC. TP-vasoconstrictor activity was measured as contraction of rings of the isolated rat thoracic aorta.
Many examples also have pronounced activity at the FP receptor, provisionally termed FP associated with the vascular endothelium in the rabbit jugular vein preparation. Since such agents would be vasodilators they have potential in hypertension and any disease where tissue blood perfusion is compromised. Such indications include, but are not limited to, systemic hypertension, angina, stroke, retinal vascular diseases, claudication, Raynauds disease, diabetes, and pulmonary hypertension.
What is called EC50 is the concentration that produces a half-maximal response. The low end stands for greater potency, the high end for weaker potency. `O=C(O)CCC/C=C\C[C@H]1C(O)CC(O)[C@@H]1COC(=O)NCc1ccccc1` (stereo in doubt) [Example 6, 7-[2-Benzylcarbamoyloxymethyl-3,5-dihydroxycyclopentyl]hept-5-enoic acid]: a half-maximal effect (EC50) was put at 14200 nM. Turning to `O=C(O)CCC/C=C\C[C@H]1C(O)CC(O)[C@@H]1COC(=S)NCc1ccccc1` (stereo in doubt) [Example 9, 7-[2-Benzylthiocarbamoyloxymethyl-3,5-dihydroxycyclopentyl]hept-5-enoic acid], the EC50 worked out at 427 nM. In turn, `O=C(O)CCC/C=C\C[C@H]1C(O)CC(O)[C@@H]1COC(=O)Nc1ccccc1` (stereo partly drawn) [Example 3, (Z)-7-((1R,2S,3R,5S)-3,5-Dihydroxy-2-phenzylcarbamoyloxymethylcyclopentyl)-hept-5-enoic acid] yielded an EC50 of 193000 nM.

`O=C(O)CCC/C=C\C[C@@H]1[C@@H](COC(=O)NCCc2cccs2)[C@H](O)C[C@@H]1O` [Example 10, (Z)-7-[(1R,2S,3R,5S)-3,5-Dihydroxy-2-(2-thiophen-2-ylethylcarbamoyloxymethyl)-cyclopentyl]hept-5-enoic acid] gave a half-maximal effective concentration (EC50) of 32000 nM. This EC50 is about 6-fold lower than that of the compound before. On the same count and under the same terms, the same measure for `CCCCNC(=S)OC[C@@H]1[C@@H](C/C=C\CCCC(=O)O)[C@@H](O)C[C@H]1O` [Example 11, (Z)-7-((1R,2S,3R,5S)-2-Butylthiocarbamoyloxymethyl-3,5-dihydroxycyclopentyl)-hept-5-enoic acid]: 171 nM. On to `O=C(O)CCC/C=C\C[C@@H]1[C@@H](COC(=S)NCc2cccc(Cl)c2)[C@H](O)C[C@@H]1O` [Example 12, (Z)-7-[(1R,2S,3R,5S)-2-(3-Chlorobenzylthiocarbamoyloxymethyl)-3,5-dihydroxycyclopentyl]hept-5-enoic acid], for which the EC50 is 3 nM. Consider `O=C(O)CCC/C=C\C[C@@H]1[C@@H](COC(=O)NCc2cccc(C(F)(F)F)c2)[C@H](O)C[C@@H]1O` [Example 13, (Z)-7-[(1R,2S,3R,5S)-3,5-Dihydroxy-2-(3-trifluoromethylbenzylcarbamoyloxymethyl)cyclopentyl]hept-5-enoic acid], for which the response was half-maximal at 2840 nM (EC50). Same read-out and setting: for `O=C(O)CCC/C=C\C[C@@H]1[C@@H](COC(=S)NCc2cccc(C(F)(F)F)c2)[C@H](O)C[C@@H]1O` [Example 14, (Z)-7-[(1R,2S,3R,5S)-3,5-Dihydroxy-2-(3-trifluoromethylbenzylthiocarbamoyloxymethyl)cyclopentyl]hept-5-enoic acid] the value was 178 nM. `O=C(CCC/C=C\C[C@@H]1[C@@H](COC(=S)NCc2cccc(Cl)c2)[C@H](O)C[C@@H]1O)NCCO` [Example 18, (3-Chlorobenzyl)thiocarbamic acid O-{(1S,2R,3S,5R)-3,5-dihydroxy-2-[(Z)-6-(2-hydroxyethylcarbamoyl)hex-2-enyl]cyclopentylmethyl}ester] came in with an EC50 of 11000 nM. On the same count and under the same terms, the same measure for `CCNC(=O)CCC/C=C\C[C@@H]1[C@@H](COC(=S)NCc2cccc(Cl)c2)[C@H](O)C[C@@H]1O` [Example 19, (3-Chlorobenzyl)thiocarbamic acid O-[(1S,2R,3S,5R)-2-((Z)-6-ethylcarbamoylhex-2-enyl)-3,5-dihydroxycyclopentylmethyl]ester]: 2910 nM.

Consider `NC(=O)CCC/C=C\C[C@@H]1[C@@H](COC(=S)NCc2cccc(Cl)c2)[C@H](O)C[C@@H]1O` [Example 20, (3-Chlorobenzyl)thiocarbamic acid O-[(1S,2R,3S,5R)-2-((Z)-6-carbamoylhex-2-enyl)-3,5-dihydroxycyclopentylmethyl]ester], for which the EC50 is 274 nM. This EC50 lies about 11-fold lower than the previous one.
